Test results reported in US20200187502A1, “MICROBIOCIDAL OXADIAZOLE DERIVATIVES” (SYNGENTA PARTICIPATIONS AG, priority 2017, published 2020).

Key:
[1] = test system: Glomerella lacenarium (Colletotrichum lacenarium); experiment: Fungicidal activity, liquid culture, cucumber preventative (anthracnose); type: cell-based; conditions: 20 ppm in the applied formulation, liquid culture in PDB, inhibition of growth measured photometrically 3 to 4 days after application, compared to untreated control, read-out: disease control
Summary of the method: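 Cryostored conidia mixed into potato dextrose broth and added to DMSO compound solution in microtiter plates. Incubated at 24 °C. Growth inhibition read photometrically 3–4 days after application as percent activity versus untreated check.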

[2] = test system: Puccinia recondita f. Sp. Tritici; experiment: Fungicidal activity, wheat leaf disc preventative (brown rust); type: in vivo; conditions: foliar, 200 ppm in the applied formulation, wheat leaf segments cv. Kanzler, compared to untreated control, 7 to 9 days after application, read-out: disease control
Summary of the method: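 Wheat cv. Kanzler leaf segments on agar were sprayed with formulated compound in water, then inoculated with spores 1 day later. Incubated at 19° C, 75% rh, 12 h light/12 h dark; percent disease control versus untreated scored 7 to 9 days after application.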

[3] = test system: Puccinia recondita f. Sp. Tritici; experiment: Fungicidal activity, wheat leaf disc curative (brown rust); type: in vivo; conditions: foliar, 200 ppm in the applied formulation, wheat leaf segments cv. Kanzler, curative (applied 1 day after inoculation), compared to untreated control, 6 to 8 days after application, read-out: disease control
Summary of the method: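 Curative test: wheat leaf segments cv. Kanzler on agar inoculated with spore suspension, kept dark at 19 °C/75% RH, then sprayed 1 day post-inoculation with compound diluted in water. Incubated at 19 °C, 75% RH, 12 h light/dark; percent disease control versus untreated scored 6–8 days after application.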

CCN(Cc1ccc(-c2noc(C(F)(F)F)n2)s1)C(=O)N1CCCO1 [Compound 5.52, N-ethyl-N-[[5-[5-(trifluoromethyl)-1,2,4-oxadiazol-3-yl]-2-thienyl]methyl]isoxazolidine-2-carboxamide]
≥ 80%: inhibition of growth at 20 ppm [1] | pest or weed control at 200 ppm [2] | pest or weed control at 200 ppm [3]

CCCN(CC1CC1)C(=O)N(CC)Cc1ccc(-c2noc(C(F)(F)F)n2)s1 [Compound 5.53, 1-(cyclopropylmethyl)-3-ethyl-1-propyl-3-[[5-[5-(trifluoromethyl)-1,2,4-oxadiazol-3-yl]-2-thienyl]methyl]urea]
≥ 80%: inhibition of growth at 20 ppm [1] | pest or weed control at 200 ppm [2] | pest or weed control at 200 ppm [3]

CN(Cc1ccc(-c2noc(C(F)(F)F)n2)s1)C(=O)N(CC(F)F)C1CC1 [Compound 5.54, 1-cyclopropyl-1-(2,2-difluoroethyl)-3-methyl-3-[[5-[5-(trifluoromethyl)-1,2,4-oxadiazol-3-yl]-2-thienyl]methyl]urea]
≥ 80%: inhibition of growth at 20 ppm [1] | pest or weed control at 200 ppm [2] | pest or weed control at 200 ppm [3]

CN(Cc1ccc(-c2noc(C(F)(F)F)n2)s1)C(=O)N1CCC2(CC2)C1 [Compound 5.55, N-methyl-N-[[5-[5-(trifluoromethyl)-1,2,4-oxadiazol-3-yl]-2-thienyl]methyl]-5-azaspiro[2.4]heptane-5-carboxamide]
≥ 80%: inhibition of growth at 20 ppm [1] | pest or weed control at 200 ppm [2] | pest or weed control at 200 ppm [3]

CCCN(CC1CC1)C(=O)N(C)Cc1ccc(-c2noc(C(F)(F)F)n2)s1 [Compound 5.57, 1-(cyclopropylmethyl)-3-methyl-1-propyl-3-[[5-(5-(trifluoromethyl)-1,2,4-oxadiazol-3-yl]-2-thienyl]methyl]urea]
≥ 80%: inhibition of growth at 20 ppm [1] | pest or weed control at 200 ppm [2] | pest or weed control at 200 ppm [3]

CC(C)N(Cc1ccc(-c2noc(C(F)(F)F)n2)s1)C(=O)NC1CC1 [Compound 5.59, 3-cyclopropyl-1-isopropyl-1-[[5-[5-(trifluoromethyl)-1,2,4-oxadiazol-3-yl]-2-thienyl]methyl]urea]
≥ 80%: inhibition of growth at 20 ppm [1] | pest or weed control at 200 ppm [2] | pest or weed control at 200 ppm [3]

O=C(N1CCCO1)N(Cc1ccc(-c2noc(C(F)(F)F)n2)s1)C1CC1 [Compound 5.61, N-cyclopropyl-N-[[5-[5-(trifluoromethyl)-1,2,4-oxadiazol-3-yl]-2-thienyl]methyl]isoxazolidine-2-carboxamide]
≥ 80%: inhibition of growth at 20 ppm [1] | pest or weed control at 200 ppm [2] | pest or weed control at 200 ppm [3]

O=C(N1CCCO1)N(Cc1ccc(-c2noc(C(F)(F)F)n2)s1)OCC(F)F [Compound 5.64, N-(2,2-difluoroethoxy)-N-[[5-[5-(trifluoromethyl)-1,2,4-oxadiazol-3-yl]-2-thienyl]methyl]isoxazolidine-2-carboxamide]
≥ 80%: inhibition of growth at 20 ppm [1] | pest or weed control at 200 ppm [2] | pest or weed control at 200 ppm [3]

CCN(Cc1ccc(-c2noc(C(F)(F)F)n2)s1)C(=O)C(C)=O [Compound 6.6, N-ethyl-2-oxo-N-[[5-[5-(trifluoromethyl)-1,2,4-oxadiazol-3-yl]-2-thienyl]methyl]propanamide]
≥ 80%: inhibition of growth at 20 ppm [1] | pest or weed control at 200 ppm [2] | pest or weed control at 200 ppm [3]

CC(=O)C(=O)N(C)Cc1ccc(-c2noc(C(F)(F)F)n2)s1 [Compound 6.8, N-methyl-2-oxo-N-[[5-[5-(trifluoromethyl)-1,2,4-oxadiazol-3-yl]-2-thienyl]methyl]propanamide]
≥ 80%: inhibition of growth at 20 ppm [1] | pest or weed control at 200 ppm [2] | pest or weed control at 200 ppm [3]

CC(C)N(Cc1ccc(-c2noc(C(F)(F)F)n2)s1)C(=O)C(N)=O [Compound 6.9, N′-isopropyl-N′-[[5-[5-(trifluoromethyl)-1,2,4-oxadiazol-3-yl]-2-thienyl]methyl]oxamide]
≥ 80%: inhibition of growth at 20 ppm [1] | pest or weed control at 200 ppm [2] | pest or weed control at 200 ppm [3]

CC(=O)C(=O)N(Cc1ccc(-c2noc(C(F)(F)F)n2)s1)C1CC1 [Compound 6.11, N-cyclopropyl-2-oxo-N-[[5-[5-(trifluoromethyl)-1,2,4-oxadiazol-3-yl]-2-thienyl]methyl]propanamide]
≥ 80%: inhibition of growth at 20 ppm [1] | pest or weed control at 200 ppm [2] | pest or weed control at 200 ppm [3]

CN(Cc1ccc(-c2noc(C(F)(F)F)n2)s1)S(C)(=O)=O [Compound 6.27, N-methyl-N-[[5-[5-(trifluoromethyl)-1,2,4-oxadiazol-3-yl]-2-thienyl]methyl]methanesulfonamide]
≥ 80%: inhibition of growth at 20 ppm [1] | pest or weed control at 200 ppm [2] | pest or weed control at 200 ppm [3]

CCN(Cc1ccc(-c2noc(C(F)(F)F)n2)s1)C(=O)C(=O)c1ccccc1 [Compound 6.40, N-ethyl-2-oxo-2-phenyl-N-[[5-[5-(trifluoromethyl)-1,2,4-oxadiazol-3-yl]-2-thienyl]methyl]acetamide]
≥ 80%: inhibition of growth at 20 ppm [1] | pest or weed control at 200 ppm [2] | pest or weed control at 200 ppm [3]

CCC(=O)C(=O)N(CC)Cc1ccc(-c2noc(C(F)(F)F)n2)s1 [Compound 6.42, N-ethyl-2-oxo-N-[[5-[5-(trifluoromethyl)-1,2,4-oxadiazol-3-yl]-2-thienyl]methyl]butanamide]
≥ 80%: inhibition of growth at 20 ppm [1] | pest or weed control at 200 ppm [2] | pest or weed control at 200 ppm [3]

CCN(Cc1ccc(-c2noc(C(F)(F)F)n2)s1)C(=O)C(=O)Cc1ccccc1 [Compound 6.43, N-ethyl-2-oxo-3-phenyl-N-[[5-[5-(trifluoromethyl)-1,2,4-oxadiazol-3-yl]-2-thienyl]methyl]propanamide]
≥ 80%: inhibition of growth at 20 ppm [1] | pest or weed control at 200 ppm [2] | pest or weed control at 200 ppm [3]

CCN(Cc1ccc(-c2noc(C(F)(F)F)n2)s1)C(=O)C(=O)c1ccco1 [Compound 6.46, N-ethyl-2-(2-furyl)-2-oxo-N-[[5-[5-(trifluoromethyl)-1,2,4-oxadiazol-3-yl]-2-thienyl]methyl]acetamide]
≥ 80%: inhibition of growth at 20 ppm [1] | pest or weed control at 200 ppm [2] | pest or weed control at 200 ppm [3]

CN(Cc1ccc(-c2noc(C(F)(F)F)n2)s1)C(=O)C(=O)c1ccccc1 [Compound 6.47, N-methyl-2-oxo-2-phenyl-N-[[5-[5-(trifluoromethyl)-1,2,4-oxadiazol-3-yl]-2-thienyl]methyl]acetamide]
≥ 80%: inhibition of growth at 20 ppm [1] | pest or weed control at 200 ppm [2] | pest or weed control at 200 ppm [3]
